Measurements as given in patent US20170342499A1, “GENOMIC CLASSIFIER THAT PREDICTS RESPONSE TO MULTI-KINASE INHIBITOR TREATMENT INTRODUCTION” (Centre Léon-Bérard, priority 2014, published 2017).

Columns and labels:
[1] = system: CRC; test: Response to conventional chemotherapy versus SUMSCAN prediction in CRC patients; format: in vivo, human; details: CRC patients (n = 21)
[2] = system: imatinib and sunitinib refractory gastrointestinal stromal tumors (GIST); details: cited from earlier work
[3] = system: pretreated metastatic colorectal cancer (mCRC); details: cited from earlier work

Structure (SMILES)	patients resistant to the chemotherapy regimen, n (% of 21) ([1]; SUMSCAN Predicted Resistant)	patients sensitive to the chemotherapy regimen, n (% of 21) ([1]; SUMSCAN Predicted Resistant)	patients resistant to the chemotherapy regimen, n (% of 21) ([1]; SUMSCAN Predicted Sensitive)	patients sensitive to the chemotherapy regimen, n (% of 21) ([1]; SUMSCAN Predicted Sensitive)	patients resistant to the chemotherapy regimen, n (% of 21) ([1]; Total)	patients sensitive to the chemotherapy regimen, n (% of 21) ([1]; Total)	antitumor activity by nature of the KIT/or PDGFRA mutation ([2]; GIST)	improvement in PFS ([2]; imatinib and sunitinib refractory GIST) [months]	improvement in PFS [3] [weeks]
CCc1c2c(nc3ccc(OC(=O)N4CCC(N5CCCCC5)CC4)cc13)-c1cc3c(c(=O)n1C2)COC(=O)[C@]3(O)CC [Irinotecan]	2 (9.5%)	7 (33.3%)	3 (14.3%)	9 (42.9%)	5 (23.8%)	16 (76.2%)			
O=C1[O][Pt]2([NH][C@@H]3CCCC[C@H]3[NH]2)[O]C1=O [Oxaliplatin]	2 (9.5%)	7 (33.3%)	6 (28.6%)	6 (28.6%)	8 (38.1%)	13 (61.9%)			
CNC(=O)c1cc(Oc2ccc(NC(=O)Nc3ccc(Cl)c(C(F)(F)F)c3)c(F)c2)ccn1 [Regorafenib]							observed at the same level regardless of the nature of the KIT/or PDGFRA mutation	4	0.9
